How the values were obtained:
Apis mellifera = details: acute, duration: 48 hours, mortality
Canidae = details: chronic; duration: 1 years; oral; Dog Other; clinical chemistry
Daphnia magna = details: chronic/long-term; duration: 21 days; reproduction
Oncorhynchus mykiss = details: chronic/long-term; duration: 96 days; growth
Tagia sp. = details: acute; duration: 14 days; mortality

Question: How did the LD50 (Apis mellifera; dermal) turn out when `CC1(C(=O)Nc2ccc(O)c(Cl)c2Cl)CCCCC1` [Fenhexamid] was run?
Answer: The LD50 was over 200 µg/piece.

Question: And the LD50 (Apis mellifera; oral, unspecified)?
Answer: The LD50 was over 102 µg/piece.

Question: And the NOAEL (Canidae)?
Answer: The NOAEL was 19.2 mg/kg-day.

Question: What about the LC50 (Colinus virginianus; acute, oral, diet, mortality) of the same compound?
Answer: Its LC50 is over 804 mg/kg-day.

Question: And the LD50 (Colinus virginianus; acute, oral, mortality)?
Answer: Its LD50 is over 2000 mg/kg-day.

Question: What about the NOEC (Colinus virginianus; reproduction developmental) of the same compound?
Answer: The NOEC was 154 mg/kg-day.

Question: And the NOEC (Daphnia magna)?
Answer: Its NOEC is 1.03 mg/L.

Question: And the NOEC (Oncorhynchus mykiss)?
Answer: Its NOEC is 0.101 mg/L.

Question: What about the LD50 (Rattus norvegicus; acute, oral, mortality) of the same compound?
Answer: Its LD50 is over 5000 mg/kg-day.

Question: What about the NOAEL (Rattus norvegicus; reproduction developmental) of the same compound?
Answer: Its NOAEL is 40.2 mg/kg-day.

Question: What about the LC50 (Tagia sp.) of the same compound?
Answer: The LC50 was at least 1000 mg/kg.

Source: EPA's ToxValDB 9.5 (doi:10.2903/j.efsa.2014.3744)
